The values that follow come from patent US20240336594A1, “SIX-MEMBERED ARYL OR HETEROARYL AMIDES, AND COMPOSITION AND USE THEREOF” (BETTA PHARMACEUTICALS CO., LTD, priority 2021, published 2024).

Some results are limits rather than exact numbers.

In the assay the target is T1, MALT1 (Homo sapiens, UniProt Q9UDY8).
T1 sequence (Q9UDY8 1-824): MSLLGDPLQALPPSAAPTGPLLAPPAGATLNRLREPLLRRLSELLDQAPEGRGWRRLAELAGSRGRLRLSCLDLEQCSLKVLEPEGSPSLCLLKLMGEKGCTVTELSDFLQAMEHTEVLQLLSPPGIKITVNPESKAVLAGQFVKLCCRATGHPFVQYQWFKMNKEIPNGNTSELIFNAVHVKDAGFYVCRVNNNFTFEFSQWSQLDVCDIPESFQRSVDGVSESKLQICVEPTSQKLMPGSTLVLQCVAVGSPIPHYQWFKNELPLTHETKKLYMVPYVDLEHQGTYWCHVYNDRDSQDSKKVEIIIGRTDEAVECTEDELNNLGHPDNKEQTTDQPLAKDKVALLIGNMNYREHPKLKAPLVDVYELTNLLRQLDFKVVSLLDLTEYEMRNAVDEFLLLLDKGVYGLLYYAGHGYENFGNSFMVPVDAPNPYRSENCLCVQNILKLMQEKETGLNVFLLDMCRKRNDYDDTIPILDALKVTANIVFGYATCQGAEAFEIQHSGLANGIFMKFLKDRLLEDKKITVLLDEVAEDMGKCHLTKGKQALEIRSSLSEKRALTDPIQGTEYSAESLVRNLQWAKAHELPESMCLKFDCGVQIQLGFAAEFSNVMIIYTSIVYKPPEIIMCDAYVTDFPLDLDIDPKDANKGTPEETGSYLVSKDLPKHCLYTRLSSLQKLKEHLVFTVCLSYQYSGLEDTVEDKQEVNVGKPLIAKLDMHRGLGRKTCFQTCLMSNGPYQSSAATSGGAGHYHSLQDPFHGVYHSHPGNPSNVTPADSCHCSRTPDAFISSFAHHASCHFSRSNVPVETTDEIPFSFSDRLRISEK
In words: MALT1 protease inhibition assay (AMC-labeled peptide, fluorescence 360/460). It counts as biochemical. The settings on record: substrate Ac-LRSR-AMC, 15 min preincubation, 90 min at 25° C. On the procedure:
Test compounds of the present invention (in 100% DMSO) were spotted into a 384-well dilution plate and serially diluted to the required concentrations with DMSO. Then, 0.2 μL of the test compounds were transferred into a new 384-well reaction plate by Echo following centrifugation. The MALT enzyme and its substrate, AMC-labeled peptide, were prepared in 1× protease buffer to yield 2× enzyme solution and 2× peptide solution. Subsequently, 10 μL of 2× enzyme solution was added into the 384-well reaction plate, incubating with the test compounds for 15 minutes at 25° C. After that, 10 μL of 2× peptide solution was added into the plate, continuing to incubate for 90 minutes at 25° C. The plate was then placed on an Envision multifunctional microplate reader to collect raw data, which would be converted into inhibition rate:
Inhibition rate %=(max−sample)/(max−min)*100%. • “max” values were measured using the reaction with enzyme but no compound treated, while “min” values were generated from control wells containing assay buffer without enzyme.
Curve fitting was done with Graphpad Prism software to determine the IC50 values. The specific experimental operations are as follows:
58.82 g Na Citrate·2H2O powder was added into 140 mL ddH2O and mixed in a 37° C. water bath. Once there were no visible particles, the remaining solutions were added successively with continuous stirring for 10 minutes. The final volume was adjusted to 200 mL. The buffer was stored at room temperature. DTT was added before use.
• 1) All test compounds were diluted from 10 mM stock solution into 1 mM in a 384 well dilution plate (labcyte, PP-0200); • 2) Ten various concentrations of the diluted compound solution above were obtained by serial dilution at an equal ratio of 1:3; • 3) 0.2 μL DMSO was transferred to two empty wells of the 384 reaction plate as blank controls without compound and enzyme respectively; • 4) 0.2 μL of the test compound at different concentrations was also transferred into the 384 reaction plate by Echo, with two duplicate wells for each concentration, then the plate was centrifuged at 1000 rpm for 1 min.
• 1) The MALT1 protease and AMC-labeled peptide was prepared in 1× protease buffer to obtain 2× enzyme solution and 2× peptide solution. 10 μL of 2× enzyme solution was added into the 384-well reaction plate. The plate was centrifuged at 1000 rpm for 1 min and incubated for 15 min at 25° C. • 2) 10 μL of 2× peptide solution was then transferred to the 384 reaction plate, and the plate was centrifuged at 1000 rpm for 1 min and incubate for 90 min at 25° C.
“5-(2′-amino-5-chloro-2,4′- difluoro-[1,1′-biphenyl]-4- carboxamido)-3-chloro-N- (2,2-difluoro-2λ3- ethyl)picolinamide [Example A457]”: the IC50 (as a rule, the concentration that gives 50% inhibition) lay in the range of 10 to 100 nM.

Molecule `C#Cc1cc(F)cnc1-c1cc(Cl)c(C(=O)Nc2ccnc(C(F)(F)F)c2)cc1F` [Example A324, 2-chloro-4-(3-ethyny1-5-fluoropyridin-2-y1)-5-fluoro-N-(2-(trifluoromethyl)pyridin-4-yl)benzamide] gave an IC50 of no more than 10 nM.

Consider `C#Cc1cnccc1-c1c(F)c(F)c(C(=O)Nc2cnc(-n3nccn3)c(Cl)c2)c(F)c1F` [Example A333, N-(5-chloro-6-(2H-1,2,3-triazol-2-yl)pyridin-3-y1)-4-(3-ethynylpyridin-4-y1)-2,3,5,6-tetrafluorobenzamide], for which the IC50 was no more than 10 nM.

Consider `C#Cc1cc(F)cnc1-c1cc(Cl)c(C(=O)Nc2cnc(-n3nccn3)c(Cl)c2)cc1F` [Example A335, 2-chloro-N-(5-chloro-6-(2H-1,2,3-triazol-2-yl)pyridin-3-y1)-4-(3-ethyny1-5-fluoropyridin-2-y1)-5-fluorobenzamide], for which the IC50 is no more than 10 nM.

Molecule `C#Cc1cnccc1-c1cc(Cl)c(C(=O)Nc2ccc(OC)c(Cl)c2)cc1F` [Example A338, 2-chloro-N-(3-chloro-4-methoxyphenyl)-4-(3-ethynylpyridin-4-y1)-5-fluorobenzamide] displayed a concentration for half-maximal inhibition (IC50) of no more than 10 nM.

As for `C=CC(=O)Nc1cnccc1-c1cc(Cl)c(C(=O)Nc2cnc(-n3nccn3)c(Cl)c2)cc1F` [Example A342, 4-(3-acrylamidopyridin-4-y1)-2-chloro-N-(5-chloro-6-(2H-1,2,3-triazol-2-y1)pyridin-3-y1)-5-fluorobenzamide], the IC50 was no more than 10 nM.

The molecule `C=Cc1cnccc1-c1cc(Cl)c(C(=O)Nc2cnc(-n3nccn3)c(C(F)(F)F)c2)cc1F` [Example A346, N-(6-(2H-1,2,3-triazol-2-yl)-5-(trifluoromethyl)pyridin-3-yl)-2-chloro-5-fluoro-4-(3-vinylpyridin-4-y1)benzamide] displayed an IC50 of no more than 10 nM.

Regarding `C#Cc1cc(C(=O)Nc2cnc(-n3nccn3)c(Cl)c2)c(C)cc1-c1ccc(F)cc1N` [Example A409], the 50% inhibitory concentration (IC50) is no more than 10 nM.

Consider `C#Cc1cccc(Cl)c1-c1cc(Cl)c(C(=O)Nc2cnc(-n3nccn3)c(C(F)(F)F)c2)cc1F` [Example A413], for which the IC50 was no more than 10 nM.

As to `C#Cc1cc(C(=O)Nc2cnc(-n3nccn3)c(Cl)c2)c(C)cc1-c1ccc(F)cc1Cl` [Example A414, 2′-chloro-N-(5-chloro-6-(2H-1,2,3-triazol-2-yl)pyridin-3-yl)-2-ethynyl-4′-fluoro-5-methyl-[1,1′-biphenyl]-4-carboxamide], the IC50 is 10 to 100 nM.

For `C#Cc1cc(F)ccc1-c1cc(C)c(C(=O)Nc2cnc(-n3nccn3)c(Cl)c2)cc1C#C` [Example A415], the half-maximal inhibitory concentration (IC50) lay in the range of 10 to 100 nM.

`C#Cc1cc(C(=O)Nc2cnc(-n3nccn3)c(Cl)c2)c(C)cc1-c1ccc(F)nc1N` [Example A416, 4-(2-amino-6-fluoropyridin-3-yl)-N-(5-chloro-6-(2H-1,2,3-triazol-2-yl)pyridin-3-yl)-5-ethynyl-2-methylbenzamide] yielded an IC50 of 100 to 500 nM.

Take `C#Cc1cc(C(=O)Nc2cnc(-n3nccn3)c(Cl)c2)c(C)cc1-c1ccncc1OC` [Example A417, N-(5-chloro-6-(2H-1,2,3-triazol-2-yl)pyridin-3-yl)-5-ethynyl-4-(3-methoxypyridin-4-yl)-2-methylbenzamide]: the IC50 fell in the range of 10 to 100 nM.

The molecule `Nc1cc(F)ccc1-c1cc(Cl)c(C(=O)Nc2cnc(-n3nccn3)c(Cl)c2)cc1C1=CCCCC1` [Example A418, 2-amino-5′-chloro-N-(5-chloro-6-(2H-1,2,3-triazol-2-yl)pyridin-3-yl)-4-fluoro-2″,3″,4″,5″-tetrahydro-[1,1′:2′,1″-terphenyl]-4′-carboxamide] returned an IC50 greater than 500 nM.

With `Cc1cc(-c2ccc(F)cc2Cl)c(-c2ccccc2)cc1C(=O)Nc1cnc(-n2nccn2)c(Cl)c1` [Example A419, 2-chloro-N-(5-chloro-6-(2H-1,2,3-triazol-2-yl)pyridin-3-yl)-4-fluoro-5′-methyl-[1,1′:2′,1″-terphenyl]-4′-carboxamide], the IC50 was greater than 500 nM.

On to `Cc1cc(-c2ccc(F)cc2N)c(C2=CCCC2)cc1C(=O)Nc1cnc(-n2nccn2)c(Cl)c1` [Example A420, 2′-amino-N-(5-chloro-6-(2H-1,2,3-triazol-2-yl)pyridin-3-yl)-2-(cyclopent-1-en-1-yl)-4′-fluoro-5-methyl-[1,1′-biphenyl]-4-carboxamide], for which the IC50 was greater than 500 nM.

Turning to `Cc1cc(-c2ccc(F)cc2N)c(-c2ccccc2)cc1C(=O)Nc1cnc(-n2nccn2)c(Cl)c1` [Example A421, 2-amino-N-(5-chloro-6-(2H-1,2,3-triazol-2-yl)pyridin-3-yl)-4-fluoro-5′-methyl-[1,1′:2′,1″-terphenyl]-4′-carboxamide], the IC50 was greater than 500 nM.

For `C#Cc1cc(F)ccc1-c1cc(C)c(C(=O)Nc2cnc(-n3nccn3)c(Cl)c2)cc1-c1ccccc1` [Example A422, N-(5-chloro-6-(2H-1,2,3-triazol-2-yl)pyridin-3-yl)-2-ethynyl-4-fluoro-5′-methyl-[1,1′:2′,1″-terphenyl]-4′-carboxamide], the IC50 is greater than 500 nM.

`CC#Cc1cc(C(=O)Nc2cnc(-n3nccn3)c(Cl)c2)c(C)cc1-c1ccc(F)cc1N` [Example A423]: the IC50 was 10 to 100 nM.

Molecule `C=Cc1cc(C(=O)Nc2cnc(-n3nccn3)c(Cl)c2)c(Cl)cc1-c1ccc(F)cc1N` [Example A424, 2′-amino-5-chloro-N-(5-chloro-6-(2H-1,2,3-triazol-2-yl)pyridin-3-yl)-4′-fluoro-2-vinyl-[1,1′-biphenyl]-4-carboxamide] gave an IC50 of 10 to 100 nM.

`C=Cc1cc(C(=O)Nc2cnc(-n3nccn3)c(Cl)c2)c(C)cc1-c1ccc(F)cc1N` [Example A425] gave an IC50 of 10 to 100 nM.

The molecule `C#Cc1cnccc1-c1cc(Cl)c(C(=O)Nc2cnc(C(=O)NCCC)c(Cl)c2)cc1F` [Example A430, 3-chloro-5-(2-chloro-4-(3-ethynylpyridin-4-yl)-5-fluorobenzamido)-N-propylpicolinamide] displayed an IC50 of no more than 10 nM.

The molecule `C#Cc1cnccc1-c1cc(Cl)c(C(=O)Nc2cnc(C(=O)NCCOC(F)(F)F)c(Cl)c2)cc1F` [Example A431, 3-chloro-5-(2-chloro-4-(3-ethynylpyridin-4-yl)-5-fluorobenzamido)-N-(2-(trifluoromethoxy)ethyl) picolinamide] registered an IC50 of 10 to 100 nM.

As to `C#Cc1cnccc1-c1cc(Cl)c(C(=O)Nc2cnc(C(=O)NCCc3ccccc3)c(Cl)c2)cc1F` [Example A432, 3-chloro-5-(2-chloro-4-(3-ethynylpyridin-4-yl)-5-fluorobenzamido)-N-phenethylpicolinamide], the IC50 was in the range of 10 to 100 nM.

The molecule `C#Cc1cnccc1-c1cc(Cl)c(C(=O)Nc2cnc(C(=O)NCc3ccoc3)c(Cl)c2)cc1F` [Example A433, 3 3-chloro-5-(2-chloro-4-(3-ethynylpyridin-4-yl)-5-fluorobenzamido)-N-(furan-3-ylmethyl)picolinamide] displayed an IC50 of 10 to 100 nM.

In the case of `C#Cc1cnccc1-c1cc(Cl)c(C(=O)Nc2cnc(C(=O)NCC(C)(C)C)c(Cl)c2)cc1F` [Example A434, 3-chloro-5-(2-chloro-4-(3-ethynylpyridin-4-yl)-5-fluorobenzamido)-N-neopentylpicolinamide], the IC50 lay within 10 to 100 nM.
